According to patent publication US20200068891A1, “Synergetic Biocidal Compositions Comprising 5-Chlorine-2-Methylisothiazolin-3-One” (priority 2017, published 2020):

How the values were obtained:
[1] = tested on: Pseudomonas putida (DSM 25068); test: Synergy test: minimum inhibitory concentrations in microtiter plates, Pseudomonas putida in Mueller-Hinton broth; assay type: cell-based; conditions: 48 hours at 30° C.; for Synergy index Qa/QA + Qb/QB: below 1 = synergism; for Qa (CMIT): concentration of CMIT indicating an end point / Qa (CIT): concentration of CMIT indicating an end point: as sole agent (QA) where Qb is 0
Description: (Pseudomonas) or 25° C. (Yarrowia).
Kull et al., Applied Microbiology, Vol. 9 (1961), p. 538.
QA =concentration of component A as sole biocide
QB =concentration of component B as sole biocide

[2] = tested on: Yarrowia lipolytica (DSM 32369); test: Synergy test: minimum inhibitory concentrations in microtiter plates, Yarrowia lipolytica in Sabouraud Maltose broth; conditions: 48 hours at 25° C.; for Synergy index Qa/QA + Qb/QB: below 1 = synergism; for Qa (CMIT) / Qa (CMIT): concentration of CMIT indicating an end point: as sole agent (QA) where Qb is 0
Description: The test organisms used were the Gram-negative bacterium Pseudomonas putida (DSM 25068) and the yeast fungus Yarrowia lipolytica (DSM 32369). For this, mixtures with different concentrations of the particular active substances were prepared and tested in regard to their effect on Pseudomonas putida and Yarrowia lipolytica. The testing was done in Milller-Hinton broth MHB (in the case of Pseudomonas) or Sabouraud Maltose broth SMB (in the case of Yarrowia) with a cell density of 10^6 germs per ml.
The incubation time of the microtiter plates was 48 hours at 30° C. (Pseudomonas) or 25° C. (Yarrowia). After 48 hours the batches were evaluated for turbidity due to growth and, in addition, the optical density was determined by photometry. In this way, the minimum inhibitory concentrations (MHK) were determined for the two active substances individually and in combination.
The resulting synergism was represented numerically by calculating the synergy index (SI). […] There, the SI is calculated by the following formula: synergy index SI =Qa/QA +Qb/QB
Qa =concentration of component A in the mixture A+B
Qb =concentration of component B in the mixture A+B
If the synergy index has a value over 1, this means that an antagonism is present. If the synergy index takes on the value 1, this means that an addition of the effect of the two biocides/compounds is present. If the synergy index takes on a value below 1, this means that a synergism exists for the two biocides. If the synergy index has a value of more than 1, this means that an antagonism exists.

[3] = in the mixture with CMIT, as sole agent (QB) where Qa is 0

Cn1sc(Cl)cc1=O [CMIT, 5-chloro-2-methylisothiazolin-3-one]
Synergy index Qa/QA + Qb/QB ([1]; CMIT and BAC): 1.00 | Synergy index Qa/QA + Qb/QB ([1]; CMIT and BBIT): 1.00 | Synergy index Qa/QA + Qb/QB ([1]; CMIT and DDAC): 1.00 | Synergy index Qa/QA + Qb/QB ([1]; CMIT and EDDS): 1.00 | Synergy index Qa/QA + Qb/QB ([1]; CMIT and GDA): 1.00 | Synergy index Qa/QA + Qb/QB ([1]; CMIT and HCHO): 1.00 | Synergy index Qa/QA + Qb/QB ([1]; CMIT and HEDP): 1.00 | Synergy index Qa/QA + Qb/QB ([1]; CMIT and IPBC): 1.00 | Synergy index Qa/QA + Qb/QB ([1]; CMIT and OIT): 1.00 | Synergy index Qa/QA + Qb/QB ([1]; CMIT and PASP Na salt): 1.00 | Synergy index Qa/QA + Qb/QB ([1]; CMIT and ethylparaben): 1.00 | Synergy index Qa/QA + Qb/QB ([1]; CMIT and methylparaben): 1.00 | Synergy index Qa/QA + Qb/QB ([1]; CMIT and phenetyl alcohol): 1.00 | Qa (CMIT): concentration of CMIT indicating an end point ([1]; in the mixture with BAC): 2 ppm | Qa (CIT): concentration of CMIT indicating an end point ([1]; in the mixture with BBIT): 2 ppm | Qa (CMIT): concentration of CMIT indicating an end point ([1]; in the mixture with DDAC): 2 ppm | Qa (CMIT): concentration of CMIT indicating an end point ([1]; in the mixture with EDDS): 2 ppm | Qa (CMIT): concentration of CMIT indicating an end point ([1]; in the mixture with GDA): 2 ppm | Qa (CMIT): concentration of CMIT indicating an end point ([1]; in the mixture with HCHO): 2 ppm | Qa (CMIT): concentration of CMIT indicating an end point ([1]; in the mixture with HEDP): 2 ppm | Qa (CIT): concentration of CMIT indicating an end point ([1]; in the mixture with IPBC): 2 ppm | Qa (CIT): concentration of CMIT indicating an end point ([1]; in the mixture with OIT): 2 ppm | Qa (CMIT): concentration of CMIT indicating an end point ([1]; in the mixture with PASP Na salt): 2 ppm | Qa (CMIT): concentration of CMIT indicating an end point ([1]; in the mixture with ethylparaben): 2 ppm | Qa (CMIT): concentration of CMIT indicating an end point ([1]; in the mixture with methylparaben): 2 ppm | Qa (CMIT): concentration of CMIT indicating an end point ([1]; in the mixture with phenetyl alcohol): 2 ppm | Synergy index Qa/QA + Qb/QB ([2]; CMIT and BBIT): 1.00 | Synergy index Qa/QA + Qb/QB ([2]; CMIT and IPBC): 1.00 | Synergy index Qa/QA + Qb/QB ([2]; CMIT and OIT): 1.00 | Synergy index Qa/QA + Qb/QB ([2]; CMIT and dehydracetic acid): 1.00 | Synergy index Qa/QA + Qb/QB ([2]; CMIT and salicylic acid): 1.00 | Synergy index Qa/QA + Qb/QB ([2]; CMIT and sorbic acid): 1.00 | Qa (CMIT) ([2]; in the mixture with BBIT): 2.50 ppm | Qa (CMIT) ([2]; in the mixture with IPBC): 2.50 ppm | Qa (CMIT) ([2]; in the mixture with OIT): 2.50 ppm | Qa (CMIT): concentration of CMIT indicating an end point ([2]; in the mixture with benzoic acid): 2.5 ppm | Qa (CMIT): concentration of CMIT indicating an end point ([2]; in the mixture with dehydracetic acid): 2.5 ppm | Qa (CMIT): concentration of CMIT indicating an end point ([2]; in the mixture with salicylic acid): 2.5 ppm | Qa (CMIT): concentration of CMIT indicating an end point ([2]; in the mixture with sorbic acid): 2.5 ppm

CCCCCCCCn1sccc1=O [OIT, octylisothiazolinone]
Synergy index Qa/QA + Qb/QB ([1]; CMIT and OIT): 1.00 | Qb (OIT): concentration of OIT indicating an end point [1, 3]: 300 ppm | Synergy index Qa/QA + Qb/QB ([2]; CMIT and OIT): 1.00 | Qb (OIT): concentration of OIT indicating an end point [2, 3]: 2.00 ppm

CCOC(=O)c1ccc(O)cc1 [ethylparaben]
Synergy index Qa/QA + Qb/QB ([1]; CMIT and ethylparaben): 1.00 | Qb (ethylparaben): concentration of ethylparaben indicating an end point [1, 3]: 1500 ppm

benzalkonium chloride [BAC]
Synergy index Qa/QA + Qb/QB ([1]; CMIT and BAC): 1.00 | Qb (BAC): concentration of BAC indicating an end point [1, 3]: 30 ppm

O=CCCCC=O [GDA, glutardialdehyde]
Synergy index Qa/QA + Qb/QB ([1]; CMIT and GDA): 1.00 | Qb (GDA): concentration of GDA indicating an end point [1, 3]: 500 ppm

CC(=O)C1C(=O)C=C(C)OC1=O (centres unmarked) [dehydracetic acid]
Synergy index Qa/QA + Qb/QB ([2]; CMIT and dehydracetic acid): 1.00 | Qb (dehydracetic acid): concentration of dehydracetic acid indicating an end point [2, 3]: 200 ppm

CCCCn1sc2ccccc2c1=O [BBIT, N-butyl-benzisothiazolinone]
Synergy index Qa/QA + Qb/QB ([1]; CMIT and BBIT): 1.00 | Qb (BBIT): concentration of BBIT indicating an end point [1, 3]: 20 ppm | Synergy index Qa/QA + Qb/QB ([2]; CMIT and BBIT): 1.00 | Qb (BBIT): concentration of BBIT indicating an end point [2, 3]: 3.00 ppm

C/C=C/C=C/C(=O)O [sorbic acid]
Synergy index Qa/QA + Qb/QB ([2]; CMIT and sorbic acid): 1.00 | Qb (sorbic acid): concentration of sorbic acid indicating an end point [2, 3]: 750 ppm

O=C(O)c1ccccc1O [salicylic acid]
Synergy index Qa/QA + Qb/QB ([2]; CMIT and salicylic acid): 1.00 | Qb (salicylic acid): concentration of salicylic acid indicating an end point [2, 3]: 3000 ppm

O=C(O)c1ccccc1 [benzoic acid]
Qb (benzoic acid): concentration of benzoic acid indicating an end point [2, 3]: 2500 ppm

C=O [HCHO, formaldehyde]
Synergy index Qa/QA + Qb/QB ([1]; CMIT and HCHO): 1.00 | Qb (HCHO): concentration of HCHO indicating an end point [1, 3]: 500 ppm

CCCCNC(=O)OCC#CI [IPBC, 3-iodo-2-propynyl butylcarbamate]
Synergy index Qa/QA + Qb/QB ([1]; CMIT and IPBC): 1.00 | Qb (IPBC): concentration of IPBC indicating an end point [1, 3]: 1000 ppm | Synergy index Qa/QA + Qb/QB ([2]; CMIT and IPBC): 1.00 | Qb (IPBC): concentration of IPBC indicating an end point [2, 3]: 2.50 ppm

CC(O)(P(=O)(O)O)P(=O)(O)O [HEDP, (1-hydroxyethylidene)bis-phosphonic acid]
Synergy index Qa/QA + Qb/QB ([1]; CMIT and HEDP): 1.00 | Qb (HEDP): concentration of HEDP indicating an end point [1, 3]: 250 ppm

OCCc1ccccc1 [phenetyl alcohol]
Synergy index Qa/QA + Qb/QB ([1]; CMIT and phenetyl alcohol): 1.00 | Qb (phenetyl alcohol): concentration of phenetyl alcohol indicating an end point [1, 3]: 3000 ppm

CCCCCCCCCC[N+](C)(C)CCCCCCCCCC.[Cl-] [DDAC, didecyldimethylammonium chloride]
Synergy index Qa/QA + Qb/QB ([1]; CMIT and DDAC): 1.00 | Qb (DDAC): concentration of DDAC indicating an end point [1, 3]: 7.5 ppm

COC(=O)c1ccc(O)cc1 [methylparaben]
Synergy index Qa/QA + Qb/QB ([1]; CMIT and methylparaben): 1.00 | Qb (methylparaben): concentration of methylparaben indicating an end point [1, 3]: 2000 ppm
